The record followed here is patent publication US20260022143A1, “Cyclic Peptide Inhibitors of IL-23” (JANSSEN PHARMACEUTICA NV, priority 2022, published 2026).

Counter-ions that a name gives are not always drawn. Starred links: 1 amine or outer side, 2 acyl side, 3 side chain; linkers in the order of their positions; H or OH if unused. Positions of bridges follow the written chain, without caps; N, C: chain ends. Non-standard residues stand in square brackets, D forms with d. Residues, ends and D or L forms follow the SMILES beside them. *: point of attachment. Me3N+(CH2)2O(CH2)2O(CH2)2CO = C[N+](C)(C)CCOCCOCCC(=O)*; Trp(7-Me) = Cc1cccc2c(C[C@H](N)C(=O)O)c[nH]c12; Hexanoyl(6-NMe3+) = C[N+](C)(C)CCCCCC(=O)*; dLys(Me3) = C[N+](C)(C)CCCC[C@@H](N)C(=O)O; 3Pal(5-Me) = Cc1cncc(C[C@H](N)C(=O)O)c1; Dab(NMeAc) = CC(=O)N(C)CC[C@H](N)C(=O)O; X29 = O=C([C@H](CCn1ncnn1)N[*:1])[*:2]; 2Nal = N[C@@H](Cc1ccc2ccccc2c1)C(=O)O; AEF = NCCOc1ccc(C[C@H](N)C(=O)O)cc1; X74 = C[N+]1(CCOCCOCC*)CCC(F)(F)CC1; X32 = C(CCC*)CC[N+]12CCN(CC1)CC2; 3Pal = N[C@@H](Cc1cccnc1)C(=O)O; Lys(Me) = CNCCCC[C@H](N)C(=O)O; Pen = CC(C)(S)[C@H](N)C(=O)O; Thp = NC1(C(=O)O)CCOCC1; Dap = NC[C@H](N)C(=O)O; X3 = C[N+](C)(C)CCCCC*; Tfa = O=C(C(F)(F)F)*; X61 = COCCOCCCNCC*; Sar = CNCC(=O)O

A short description of one data set: Exposed Polar Surface Area (EPSA). The data set is classed as physicochemical. As to conditions: SFC on Chirex 3014 column; sample 1 mM DMSO stock. In short, it runs like this:
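Compounds, as 1 mM DMSO stock, were injected in duplicate onto an SFC Chirex 3014 column at 35 °C and eluted with a CO2/methanol (20 mM ammonium formate) gradient. EPSA values in Å^2 were derived from retention times using a linear fit to eight calibration standards, reinjected every 20 compounds.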
`CC(=O)N(C)CCCC[C@@H]1NC(=O)[C@H](Cc2c[nH]c3c(C)cccc23)NC(=O)[C@H]([C@@H](C)O)NC(=O)[C@H](CC(=O)N(C)C)NC(=O)[C@@H](NC(=O)CCOCCOCC[N+](C)(C)C)C(C)(C)SSC(C)(C)[C@@H](C(=O)N[C@@H](Cc2ccc(OCC3CCC([N+](C)(C)C)CC3)cc2)C(=O)N[C@@H](Cc2ccc3ccccc3c2)C(=O)NC2(C(=O)N[C@@H](CCCCN(C)C(C)=O)C(=O)N[C@@H](CC(N)=O)C(=O)N[C@@H](Cc3cccnc3)C(=O)N(C)CC(=O)N(C)C)CCOCC2)NC1=O` (single isomer, unassigned) [compound 222, cPEG3aCO-Pen(3)-N(N(Me)2)-T-7MeW-K(NMeAc)-Pen(3)-ACHMF-2Nal-THP-K(NMeAc)-N-3Pya-Sar-CON(Me)2] came in with an EPSA of 142.87 Å^2.

Still in this data set, the particulars now being: SFC on Chirex 3014 column; sample 1 mM DMSO stock; read-out: EPSA.
With `CC(=O)N(C)CCCC[C@@H]1NC(=O)[C@H](Cc2c[nH]c3c(C)cccc23)NC(=O)[C@H]([C@@H](C)O)NC(=O)[C@H](CC(=O)N(C)C)NC(=O)[C@@H](NC(=O)CCOCCOCC[N+](C)(C)C)C(C)(C)SSC(C)(C)[C@@H](C(=O)N[C@@H](Cc2ccc(OCCCCC[N+](C)(C)C)cc2)C(=O)N[C@@H](Cc2ccc3ccccc3c2)C(=O)NC2(C(=O)N[C@@H](CCC(=O)N(C)C)C(=O)N[C@@H](CC(N)=O)C(=O)N[C@@H](Cc3cccnc3)C(=O)N(C)CC(=O)N(C)C)CCOCC2)NC1=O` [compound 310, cPEG3aCO-Pen(3)-N(N(Me)2)-T-7MeW-K(NMeAC)-Pen(3)-TMAPF-2Nal-THP-Q(N(Me)2)-N-3Pya-Sar-CON(Me)2] ({Me3N+(CH2)2O(CH2)2O(CH2)2CO}-[Pen]D(NMe2)T[Trp(7-Me)][Lys(Me)](Ac)[Pen]Y(X3)[2Nal][Thp]E(NMe2)N[3Pal][Sar]-NMe2; disulfide 1-6), the EPSA is 152 A^2.

For the compound `CC(=O)NCCCC[C@@H]1NC(=O)[C@H](Cc2c[nH]c3cccc(C)c23)NC(=O)[C@H]([C@@H](C)O)NC(=O)[C@H](CC(N)=O)NC(=O)[C@@H](NC(C)=O)C(C)(C)SSC(C)(C)[C@@H](C(=O)N[C@@H](Cc2ccc(OCCCCC[N+](C)(C)C)cc2)C(=O)N[C@@H](Cc2ccc3ccccc3c2)C(=O)NC2(C(=O)N[C@@H](CCCCNC(C)=O)C(=O)N[C@@H](CC(N)=O)C(=O)N[C@@H](Cc3cccnc3)C(=O)N(C)CC(N)=O)CCCC2)NC1=O` [compound 537, MeCO-Pen(3)-N-T-7MeW-K(Ac)-Pen(3)-TMAPF-2Nal-Acpx-K(Ac)-N-3Pya-Sar-CONH2], the EPSA came out at 163 A^2.

For `CC(=O)NCCCC[C@@H]1NC(=O)[C@H](Cc2c[nH]c3c(C)cccc23)NC(=O)[C@H]([C@@H](C)O)NC(=O)[C@H](CC(N)=O)NC(=O)[C@@H](NC(=O)[C@@H](CCCC[N+](C)(C)C)NC(C)=O)C(C)(C)SSC(C)(C)[C@@H](C(=O)N[C@@H](Cc2ccc(OCCN)cc2)C(=O)N[C@@H](Cc2ccc3ccccc3c2)C(=O)NC2(C(=O)N[C@@H](CCC(=O)O)C(=O)N[C@@H](CC(N)=O)C(=O)N[C@@H](Cc3cncc(C)c3)C(=O)N(C)CC(N)=O)CCOCC2)NC1=O` [compound 474] (Ac-[dLys(Me3)][Pen]NT[Trp(7-Me)]K(Ac)[Pen][AEF][2Nal][Thp]EN[3Pal(5-Me)][Sar]-NH2; disulfide 2-7), the EPSA was 185 A^2.

In the case of `CC(=O)N(C)CCCC[C@@H]1NC(=O)[C@H](Cc2c[nH]c3c(C)cccc23)NC(=O)[C@H]([C@@H](C)O)NC(=O)[C@H](CC(=O)N(C)C)NC(=O)[C@@H](NC(=O)CCOCCOCC[N+](C)(C)C)C(C)(C)SSC(C)(C)[C@@H](C(=O)N[C@@H](Cc2ccc(OCCCCCC[N+]34CCN(CC3)CC4)cc2)C(=O)N[C@@H](Cc2ccc3ccccc3c2)C(=O)NC2(C(=O)N[C@@H](CCCCN(C)C(C)=O)C(=O)N[C@@H](CC(N)=O)C(=O)N[C@@H](Cc3cccnc3)C(=O)N(C)CC(=O)N(C)C)CCOCC2)NC1=O` [compound 292, cPEG3aCO-Pen(3)-N(N(Me)2)-T-7MeW-K(NMeAc)-Pen(3)-Diazabiclyclooctane6F-2Nal-THP-K(NMeAc)-N-3Pya-Sar-CON(Me)2] ({Me3N+(CH2)2O(CH2)2O(CH2)2CO}-[Pen]D(NMe2)T[Trp(7-Me)][Lys(Me)](Ac)[Pen]Y(X32)[2Nal][Thp][Lys(Me)](Ac)N[3Pal][Sar]-NMe2; disulfide 1-6), the EPSA came to 152 A^2.

For the compound `CC(=O)NCCCC[C@@H]1NC(=O)[C@H](Cc2c[nH]c3c(C)cccc23)NC(=O)[C@H]([C@@H](C)O)NC(=O)[C@H](CC(N)=O)NC(=O)[C@@H](NC(C)=O)C(C)(C)SSC(C)(C)[C@@H](C(=O)N[C@@H](Cc2ccc(OCCN)cc2)C(=O)N[C@@H](Cc2ccc3ccccc3c2)C(=O)NC2(C(=O)N[C@@H](CCC(=O)O)C(=O)N[C@@H](CC(N)=O)C(=O)N[C@@H](Cc3cccnc3)C(=O)N(C)CC(=O)N3CCOCC3)CCOCC2)NC1=O` [SEQ ID 112, MeCO-Pen(3)—N-T-7MeW—K(Ac)-Pen(3)-AEF-2Nal-THIP-E-N-3Pya-Sar-COMor], the EPSA came out at 169 A^2.

As to `CC(=O)NCCCC[C@H](NC(=O)C1(NC(=O)[C@H](Cc2ccc3ccccc3c2)NC(=O)[C@H](Cc2ccc(OCCN)cc2)NC(=O)[C@H]2NC(=O)[C@H](CCN(C)C(C)=O)NC(=O)[C@H](Cc3c[nH]c4c(C)cccc34)NC(=O)[C@H]([C@@H](C)O)NC(=O)[C@H](CC(N)=O)NC(=O)[C@@H](NC(=O)C(F)(F)F)C(C)(C)SSC2(C)C)CCOCC1)C(=O)N[C@@H](CC(N)=O)C(=O)N[C@@H](Cc1cccnc1)C(=O)N(C)CC(N)=O` [compound 70] (Tfa-[Pen]NT[Trp(7-Me)][Dab(NMeAc)][Pen][AEF][2Nal][Thp]K(Ac)N[3Pal][Sar]-NH2; disulfide 1-6), the EPSA turned out to be 157 A^2.

With `CC(=O)NCCCC[C@@H]1NC(=O)[C@H](Cc2c[nH]c3c(C)cccc23)NC(=O)[C@H]([C@@H](C)O)NC(=O)[C@H](CC(N)=O)NC(=O)[C@@H](NC(=O)CCCCC[N+](C)(C)C)C(C)(C)SSC(C)(C)[C@@H](C(=O)N[C@@H](Cc2ccc(OCCN)cc2)C(=O)N[C@@H](Cc2ccc3ccccc3c2)C(=O)NC2(C(=O)N[C@@H](CNC(C)=O)C(=O)N[C@@H](CC(N)=O)C(=O)N[C@@H](Cc3cccnc3)C(=O)N(C)CC(N)=O)CCOCC2)NC1=O` [compound 99] ({Hexanoyl(6-NMe3+)}-[Pen]NT[Trp(7-Me)]K(Ac)[Pen][AEF][2Nal][Thp][Dap](Ac)N[3Pal][Sar]-NH2; disulfide 1-6 (inferred)), the EPSA amounted to 164 A^2.

Regarding `COCCOCCCNCCOc1ccc(C[C@H](NC(=O)[C@H]2NC(=O)[C@H](CCCCNC(C)=O)NC(=O)[C@H](Cc3c[nH]c4c(C)cccc34)NC(=O)[C@H]([C@@H](C)O)NC(=O)[C@H](CC(N)=O)NC(=O)[C@@H](NC(=O)CCCCC[N+](C)(C)C)C(C)(C)SSC2(C)C)C(=O)N[C@@H](Cc2ccc3ccccc3c2)C(=O)NC2(C(=O)N[C@@H](CNC(C)=O)C(=O)N[C@@H](CC(N)=O)C(=O)N[C@@H](Cc3cccnc3)C(=O)N(C)CC(N)=O)CCOCC2)cc1` [compound 204] ({Hexanoyl(6-NMe3+)}-[Pen]NT[Trp(7-Me)]K(Ac)[Pen]Y(X61)[2Nal][Thp][Dap](Ac)N[3Pal][Sar]-NH2; disulfide 1-6), the EPSA worked out at 153 A^2.

In the case of `CCCCCCCCCCCCCC(=O)N[C@@H](CCC(=O)NCCOCCOCC(=O)NCCOCCOCC(=O)N[C@@H](COCCOCC[N+](C)(C)C)C(=O)N[C@@H]1C(=O)N[C@@H](CC(=O)N(C)C)C(=O)N[C@@H]([C@@H](C)O)C(=O)N[C@@H](Cc2c[nH]c3c(C)cccc23)C(=O)N[C@@H](CCCCN(C)C(C)=O)C(=O)N[C@H](C(=O)N[C@@H](Cc2ccc(OCCOCCOCC[N+](C)(C)C)cc2)C(=O)N[C@@H](Cc2ccc3ccccc3c2)C(=O)NC2(C(=O)N[C@@H](CCCCN(C)C(C)=O)C(=O)N[C@@H](CC(N)=O)C(=O)N[C@@H](Cc3cccnc3)C(=O)N(C)CC(=O)N(C)C)CCOCC2)C(C)(C)SSC1(C)C)C(=O)O` (relative stereo) [compound 367, C14gEPEG2PEG2CO-APEG2Ser(S*)-Pen(3)-N(N(Me)2)-T-7MeW-K(NMeAc)-Pen(3)-APEG3F-2Nal-THP-K(NMeAc)-N-3Pya-Sar-CON(Me)2], the EPSA was determined as 162 A^2.

In the case of `CC(=O)NCCCC[C@@H]1NC(=O)[C@H](Cc2c[nH]c3c(C)cccc23)NC(=O)[C@H]([C@@H](C)O)NC(=O)[C@H](CC(N)=O)NC(=O)[C@H](NC(C)=O)CSSC[C@@](C)(C(=O)N[C@@H](Cc2ccc(OCCCCC[N+](C)(C)C)cc2)C(=O)N[C@@H](Cc2ccc3ccccc3c2)C(=O)NC2(C(=O)N[C@@H](CCCCNC(C)=O)C(=O)N[C@@H](CC(N)=O)C(=O)N[C@@H](Cc3cccnc3)C(=O)N(C)CC(N)=O)CCOCC2)NC1=O` [compound 478, MeCO-C(3)-N-T-7MeW-K(Ac)-aMeC(3)-TMAPF-2Nal-THP-K(Ac)-N-3Pya-Sar-CONH2], the EPSA turned out to be 164 A^2.

As for `CC(=O)NCCCC[C@@H]1NC(=O)[C@H](Cc2c[nH]c3c(C)cccc23)NC(=O)[C@H]([C@@H](C)O)NC(=O)[C@H](CC(N)=O)NC(=O)[C@@H](NC(=O)C(F)(F)F)C(C)(C)SSC(C)(C)[C@@H](C(=O)N[C@@H](Cc2ccc(OCCN)cc2)C(=O)N[C@@H](Cc2ccc3ccccc3c2)C(=O)NC2(C(=O)N[C@@H](CCn3ncnn3)C(=O)N[C@@H](CC(N)=O)C(=O)N[C@@H](Cc3cccnc3)C(=O)N(C)CC(N)=O)CCOCC2)NC1=O` [compound 77] (Tfa-[Pen]NT[Trp(7-Me)]K(Ac)[Pen][AEF][2Nal][Thp][X29]N[3Pal][Sar]-NH2; disulfide 1-6), the EPSA is 161 A^2.

As for `CC(=O)N(C)CCCC[C@@H]1NC(=O)[C@H](Cc2c[nH]c3c(C)cccc23)NC(=O)[C@H]([C@@H](C)O)NC(=O)[C@H](CC(=O)N(C)C)NC(=O)[C@@H](NC(=O)CCOCCOCC[N+](C)(C)C)C(C)(C)SSC(C)(C)[C@@H](C(=O)N[C@@H](Cc2ccc(OCCOCCOCC[N+]3(C)CCC(F)(F)CC3)cc2)C(=O)N[C@@H](Cc2ccc3ccccc3c2)C(=O)NC2(C(=O)N[C@@H](CCCCN(C)C(C)=O)C(=O)N[C@@H](CC(N)=O)C(=O)N[C@@H](Cc3cccnc3)C(=O)N(C)CC(=O)N(C)C)CCOCC2)NC1=O` [compound 298, cPEG3aCO-Pen(3)-N(N(Me)2)-T-7MeW-K(NMeAc)-Pen(3)-dFPPEG3F-2Nal-THP-K(NMeAc)-N-3Pya-Sar-CON(Me)2] ({Me3N+(CH2)2O(CH2)2O(CH2)2CO}-[Pen]D(NMe2)T[Trp(7-Me)][Lys(Me)](Ac)[Pen]Y(X74)[2Nal][Thp][Lys(Me)](Ac)N[3Pal][Sar]-NMe2; disulfide 1-6), the EPSA was found to be 149 A^2.
